Measurements from patent publication US4454156A, “4-Amino-hepta-5,6-dienoic acid” (Merrell-Toraude et Compagnie, priority 1982, dated 1984).
Several values for one entry are separate records, joined by “and”; a condition that tells them apart may be missing. Equal values may be shown once. Read-outs that look alike come from different tables or passages of the source.

What was measured:
[1] = Toxicity (lethality) after i.p. or oral administration to mice
Description: A. The toxicity of (S)-allenyl GABA and (R,S)-allenyl GABA was determined after i.p. administration to male mice. The mice were observed up to eight days after injection.
B. The toxicity of (S)-allenyl GABA ("S") and (R,S)-allenyl GABA ("R,S") was determined as in Part A after both oral and i.p. administration.

GABA-T [2] = test: GABA-T activity in mouse brain after a single i.p. or oral dose; format: in vivo, mice; details: for GABA-T Activity (calculated as percent inhibition): 6 h
Description: (§1) Male albino CD1 mice each weighing approximately 34 g at commencement of the test are given an i.p. injection of the test compound in aqueous solution daily for seven consecutive days. Half of the animals are killed by decapitation 24 hours after the last dose fo the test compound. The other half of the animals are observed for up to 12 days for toxicity (as indicated by weight loss and deaths). Control animals receive an injecion of the vehicle only.
(§2) The brains are removed from the dead mice and are divided into two portions by sagittal section. One half is used for the measurement of GABA-T activity while the other is used for measuring GABA content. The GABA-T activity is measured using known methods as described by M. Jung et al., J.Neurochem., 28, 717 (1977) and 29, 797 (1977). GABA content is measured by perchloric acid or trichloroacetic acid extracts using an amino acid analyzer equiped with a fluorescence detector.
A. The procedure of Example 3 is repeated using a single i.p. dose of the test compound and killing the mice 6 hours after the i.p. injection.
(§3) B. The procedure of Part A is repeated using both oral and i.p. doses of (R,S)-allenyl GABA.

GABA-T [3] = test: Biochemical tests for irreversible inhibition of GABA-T; details: biochemical / biological tests
GABA levels in the brain [4] = test: GABA level in mouse brain after a single i.p. or oral dose; format: in vivo, mice; details: for elevation of GABA levels in the CNS: administered orally or parenterally; for effectiveness by oral versus i.p. route: oral vs i.p.; for GABA Level (calculated as percent of control): 6 h
Description: […] […] The other half of the animals are observed for up to 12 days for toxicity (as indicated by weight loss and deaths). Control animals receive an injecion of the vehicle only.
as §2, with “The GABA-T activity is measured using known methods as described by M. Jung et al., J.Neurochem., 28, 717 (1977) and 29, 797 (1977).” left out
as §3

[5] = system: seizures and death induced by mercaptopropionic acid; test: Protection of mice against seizures and death induced by mercaptopropionic acid; format: in vivo; details: for Number of Animals having seizures / Number of Dead animals: 6 h before mercaptopropionic acid 53 mg/kg i.p.
Source text: Mice (3.5) were given a single i.p. injection of the test compound. […] The results of the testing are set forth below

GABA-T [6] = test: GABA-T activity in mouse brain after seven daily i.p. doses; format: in vivo, mice (male albino CD1); details: 24 h after last dose
Description: as §1, §2

GABA levels in the brain [7] = test: GABA content of mouse brain after seven daily i.p. doses; format: in vivo, mice (male albino CD1); details: 24 h after last dose
Description: as §1, §2

GABA-T [8] = details: known compounds, literature; cited from earlier work
brain levels of GABA = details: known compounds, literature; cited from earlier work
[9] = single i.p. dose 0.77 mM/kg (135.9 mg/kg), Table 2
[10] = single i.p. dose 1.55 mM/kg (273.5 mg/kg), Table 2
[11] = single i.p. dose 3.10 mM/kg (547.2 mg/kg), Table 2
[12] = mercaptopropionic acid model, mice
[13] = i.p., 0.77 mM/kg (135.9 mg/kg), single dose, Table 3
[14] = i.p., 1.94 mM/kg (342.4 mg/kg), single dose, Table 3
[15] = i.p., 3.87 mM/kg (683.1 mg/kg), single dose, Table 3
[16] = oral, 0.77 mM/kg (135.9 mg/kg), single dose, Table 3
[17] = oral, 1.94 mM/kg (342.4 mg/kg), single dose, Table 3
[18] = oral, 3.87 mM/kg (683.1 mg/kg), single dose, Table 3
[19] = single i.p. dose 6.2 mM/kg (1094.3 mg/kg), Table 2
[20] = 100 mg/kg i.p. daily for 7 days

Compound: C=C=C[C@@H](N)CCC(=O)O [(S)-allenyl GABA, (S)-4-amino-hepta-5,6-dienoic acid]
- No. of dead animals ([1]; i.p., 250 mg/kg, Day 1): 0/5
- No. of dead animals ([1]; i.p., 250 mg/kg, Day 2): 0/5
- No. of dead animals ([1]; i.p., 250 mg/kg, Day 3): 0/5
- No. of dead animals ([1]; i.p., 250 mg/kg, Day 4): 0/5
- No. of dead animals ([1]; i.p., 250 mg/kg, Day 8): 0/5
- No. of dead animals ([1]; i.p., 375 mg/kg, Day 1): 0/5
- No. of dead animals ([1]; i.p., 375 mg/kg, Day 2): 0/5
- No. of dead animals ([1]; i.p., 375 mg/kg, Day 3): 0/5
- No. of dead animals ([1]; i.p., 375 mg/kg, Day 4): 0/5
- No. of dead animals ([1]; i.p., 375 mg/kg, Day 8): 0/5
- No. of dead animals ([1]; i.p., 500 mg/kg, Day 1): 0/5
- No. of dead animals ([1]; i.p., 500 mg/kg, Day 2): 0/5
- No. of dead animals ([1]; i.p., 500 mg/kg, Day 3): 0/5
- No. of dead animals ([1]; i.p., 500 mg/kg, Day 4): 0/5
- No. of dead animals ([1]; i.p., 500 mg/kg, Day 8): 0/5
- No. of dead animals ([1]; i.p., 750 mg/kg, Day 1): 0/5
- No. of dead animals ([1]; i.p., 750 mg/kg, Day 2): 0/5
- No. of dead animals ([1]; i.p., 750 mg/kg, Day 3): 0/5
- No. of dead animals ([1]; i.p., 750 mg/kg, Day 4): 0/5
- No. of dead animals ([1]; i.p., 750 mg/kg, Day 8): 0/5
- toxicity after i.p. administration ([1]; i.p., very large doses corresponding to maximal biological effects): non-toxic after i.p. administration of very large doses
- toxicity by oral administration ([1]; oral): non-toxic by oral administration
- No. of dead animals Day 4 ([1]; oral, 500 mg/kg, Day 4, Example 5 Part B): 0/5
- No. of dead animals Day 4 ([1]; oral, 750 mg/kg, Day 4, Example 5 Part B): 1/5
- irreversible inhibition of GABA-T in vivo (GABA-T [2]): produce irreversible inhibition of GABA-T
- GABA-T Activity (calculated as percent inhibition) (GABA-T [2]; [9]): 79 percent inhibition
- GABA-T Activity (calculated as percent inhibition) (GABA-T [2]; [10]): 92 percent inhibition
- GABA-T Activity (calculated as percent inhibition) (GABA-T [2]; [11]): 96 percent inhibition
- irreversible inhibition of GABA-T (GABA-T [3]): irreversible inhibitor of GABA-T
- relative potency for the elevation of GABA levels (GABA levels in the brain [4]; (S) versus (R,S), single i.p. dose, Table 2): twice the potency of (R,S)-allenyl GABA
- elevation of GABA levels in the CNS (GABA levels in the brain [4]): can elevate GABA levels significantly in the CNS
- effectiveness by oral versus i.p. route (GABA levels in the brain [4]; Table 3): equally effective when given by the oral and i.p. routes of administration
- GABA Level (calculated as percent of control) (GABA levels in the brain [4]; [9]): 540% of control
- GABA Level (calculated as percent of control) (GABA levels in the brain [4]; [10]): 670% of control
- GABA Level (calculated as percent of control) (GABA levels in the brain [4]; [11]): 730% of control

Compound: C=C=CC(N)CCC(=O)O (racemic) [(R,S)-allenyl GABA, (R,S)-4-amino-hepta-5,6-dienoic acid]
- selectivity ratio ([1]; mouse, in vivo, ip): 4 to 5
- No. of dead animals ([1]; mouse, in vivo, ip, 500 mg/kg): 0/5
- No. of dead animals Day 4 ([1]; mouse, in vivo, ip, 500 mg/kg): 0/5
- No. of dead animals ([1]; mouse, in vivo, ip, 750 mg/kg): 3/5
- No. of dead animals Day 4 ([1]; mouse, in vivo, ip, 750 mg/kg): 3/5
- No. of dead animals ([1]; mouse, in vivo, ip, 1000 mg/kg): 2/5 and 4/5 and 5/5
- No. of dead animals Day 4 ([1]; mouse, in vivo, ip, 1000 mg/kg): 5/5
- No. of dead animals ([1]; mouse, in vivo, ip, 1500 mg/kg): 5/5
- No. of dead animals Day 4 ([1]; mouse, in vivo, ip, 1500 mg/kg): 5/5
- No. of dead animals Day 4 ([1]; mouse, in vivo, po, 500 mg/kg): 0/5
- No. of dead animals Day 4 ([1]; mouse, in vivo, po, 750 mg/kg): 0/5
- No. of dead animals Day 4 ([1]; mouse, in vivo, po, 1000 mg/kg): 0/5
- No. of dead animals Day 4 ([1]; mouse, in vivo, po, 1500 mg/kg): 0/5
- toxicity by oral administration ([1]; oral): did not show toxicity by the oral route up to a dose of 1500 mg/kg
- Number of Animals having seizures ([5]; 0.39 mMole/kg i.p.): 5/5
- Number of Dead animals ([5]; 0.39 mMole/kg i.p.): 3/5
- Number of Animals having seizures ([5]; 0.77 mMole/kg i.p.): 5/5
- Number of Dead animals ([5]; 0.77 mMole/kg i.p.): 2/5
- Number of Animals having seizures ([5]; 1.9 mMole/kg i.p.): 3/5
- Number of Dead animals ([5]; 1.9 mMole/kg i.p.): 0/5
- Number of Animals having seizures ([5]; 3.9 mMole/kg i.p.): 3/5
- Number of Dead animals ([5]; 3.9 mMole/kg i.p.): 0/5
- effect on number of dead animals [5, 12]: significantly reduces the number of dead animals
- protection against seizures [5, 12]: does not protect totally against seizures
- GABA-T Activity (calculated as percent inhibition) (GABA-T [2]; [13]): 64 percent inhibition
- GABA-T Activity (calculated as percent inhibition) (GABA-T [2]; [14]): 84 percent inhibition
- GABA-T Activity (calculated as percent inhibition) (GABA-T [2]; [15]): 88 percent inhibition
- irreversible inhibition of GABA-T in vivo (GABA-T [2]): produce irreversible inhibition of GABA-T
- GABA-T Activity (calculated as percent inhibition) (GABA-T [2]; [16]): 69 percent inhibition
- GABA-T Activity (calculated as percent inhibition) (GABA-T [2]; [17]): 81 percent inhibition
- GABA-T Activity (calculated as percent inhibition) (GABA-T [2]; [18]): 86 percent inhibition
- GABA-T Activity (calculated as percent inhibition) (GABA-T [2]; [10]): 76 percent inhibition
- GABA-T Activity (calculated as percent inhibition) (GABA-T [2]; [11]): 89 percent inhibition
- GABA-T Activity (calculated as percent inhibition) (GABA-T [2]; [19]): 96 percent inhibition
- GABA-T Activity (calculated as percent inhibition) (GABA-T [6]; 50 mg/kg i.p. daily for 7 days): 55 percent inhibition
- GABA-T Activity (calculated as percent inhibition) (GABA-T [6]; [20]): 74 percent inhibition
- GABA Level (calculated as percent of control) (GABA levels in the brain [7]; 50 mg/kg i.p. daily for 7 days): 130% of control
- GABA Level (calculated as percent of control) (GABA levels in the brain [7]; [20]): 180% of control
- elevation of GABA levels in the CNS (GABA levels in the brain [4]): can elevate GABA levels significantly in the CNS
- GABA Level (calculated as percent of control) (GABA levels in the brain [4]; [13]): 310% of control
- GABA Level (calculated as percent of control) (GABA levels in the brain [4]; [14]): 490% of control
- GABA Level (calculated as percent of control) (GABA levels in the brain [4]; [15]): 600% of control
- effectiveness by oral versus i.p. route (GABA levels in the brain [4]; Table 3): equally effective when given by the oral and i.p. routes of administration
- GABA Level (calculated as percent of control) (GABA levels in the brain [4]; [16]): 330% of control
- GABA Level (calculated as percent of control) (GABA levels in the brain [4]; [17]): 434% of control
- GABA Level (calculated as percent of control) (GABA levels in the brain [4]; [18]): 530% of control
- GABA Level (calculated as percent of control) (GABA levels in the brain [4]; [10]): 470% of control
- GABA Level (calculated as percent of control) (GABA levels in the brain [4]; [11]): 530% of control
- GABA Level (calculated as percent of control) (GABA levels in the brain [4]; [19]): 770% of control

Compound: C#CC(N)CCCN (centres unmarked) [1-acetylene-1,4-butanediamine]
- irreversible inhibition of GABA-T (GABA-T [8]): irreversible inhibitors of GABA-T
- elevation of brain levels of GABA (brain levels of GABA): elevate brain levels of GABA

Compound: C=C=C[C@H](N)CCC(=O)O [(R)-allenyl GABA]
- irreversible inhibition of GABA-T (GABA-T [3]): not an irreversible inhibitor of GABA-T
- irreversible inhibition of GABA-T (GABA-T [3]; listed as (R)(-)-isomer): not active

Compound: C=CC(N)CCC(=O)O (centres unmarked) [4-aminohex-5-enoic acid ("vinyl GABA"), 4-aminohex-5-enoic acid]
- irreversible inhibition of GABA-T (GABA-T [8]): irreversible inhibitors of GABA-T
- elevation of brain levels of GABA (brain levels of GABA): elevate brain levels of GABA

Compound: C#CC(N)CCC(=O)O (centres unmarked) [4-aminohex-5-ynoic acid]
- irreversible inhibition of GABA-T (GABA-T [8]): irreversible inhibitors of GABA-T
- elevation of brain levels of GABA (brain levels of GABA): elevate brain levels of GABA
